Reference: publication PMC10709327, “A class of secreted mammalian peptides with potential to expand cell-cell communication” (Nature Communications, 2023)
Where a SMILES comes first, the peptide text is derived from it. [ ]: non-standard residue; d: D form. pGlu = O=C1CC[C@@H](C(=O)O)N1

Test system: diet-induced obese male mice
Assay: 3-day food intake and body weight under daily dosing
Format: in vivo, mouse
Settings: for Food Intake: 50 mg/kg
Protocol: Fig. 5 Functional studies of […] in feeding and energy balance in mice. a Schematic of the primary amino acid sequence for full-length mouse GDF15 preproprotein and annotation of CAP-GDF15 sequence as well as the canonical GDF15 hormone sequence. b–d Food intake (b), respiratory exchange ratio (RER, c), and ambulatory activity (d) of 12–16-week diet-induced obese male mice following a single treatment of CAP-GDF15 (50 mg/kg, intraperitoneal) or vehicle control. e–g Food intake (e), RER (f), and ambulatory activity (g) of 12–16-week diet-induced obese male mice following a single treatment of scrambled CAP-GDF15 (50 mg/kg, intraperitoneal, scrambled sequence: pGlu-[…]-NH2) or vehicle control. h, i 3-day food intake (h) and body weight (i) of 12–16-week diet-induced obese male mice following treatment with CAP-GDF15 or scrambled CAP-GDF15 (50 mg/kg/day, IP), or vehicle control. Data are shown as means ± SEM. b–d, N = 12 mice/group; for e, f N = 8 mice/group; for h N = 7 food cages for vehicle and CAP-GDF15 groups and N = 5 for the scrambled peptide group; for i N = 14 mice for the vehicle group, N = 13 for the CAP-GDF15 group, and N = 5 for the scrambled peptide group. b–i injection occurred at time T = 0 (5:00 pm) and data were collected for the following 16 hrs. For (b-i), p values were calculated by two-way ANOVA. Source data are provided as a Source Data file.
Lastly, to determine whether the acute food intake suppressive effects of CAP-GDF15 would lead to long-term suppression of feeding and obesity, we administered CAP-GDF15 or scrambled CAP-GDF15 (50 mg/kg/day, IP), or vehicle control to diet-induced obese mice. Food intake and body weight were monitored over a three-day period. A durable suppression of food intake in CAP-GDF15-treated mice was over the three-day experiment (Vehicle, 7.3 ± 0.5 g/mouse; […], 4.1 ± 0.9 g/mouse/day, P < 0.05, Fig. 5h). Consequently, and as expected, an increasing reduction in body weight was also detected (Vehicle, +0.1 ± 0.3 g/mouse; CAP-GDF15, −1.9 ± 0.3 g/mouse, P < 0.001, Fig. 5i). Importantly, mice treated with the scrambled CAP-GDF15 peptide were indistinguishable in body weight or food intake from control mice (P > 0.05 versus vehicle-treated mice, Fig. 5h, i).
Animal experiments were performed according to a procedure approved by the Stanford University Administrative Panel on Laboratory Animal Care. Mice were maintained in 12-h light-dark cycles at 22 °C and about 50% relative humidity and fed a standard irradiated rodent diet. Where indicated, a high-fat diet (D12492, Research Diets 60% kcal from fat) was used. Male C57BL/6 J (stock number 000664) and male C57BL/6 J DIO mice were purchased from the Jackson Laboratory (stock number 380050). For studies in high-fat diet-fed mice, peptides were dissolved in 18:1:1 (by volume) of saline:Kolliphor EL (Sigma Aldrich):DMSO and administered to mice by intraperitoneal injections at a volume of 10 µl/g at the indicated doses for the indicated times. For lipopolysacchardide injection, LPS (Sigma, #L2880-10MG) was dissolved in saline and administered to mice at a volume of 5 µl/g at indicated dose. For fasting, food was removed from mice for 16 h. For running, a six-lane Columbus Instruments animal treadmill (product 1055-SRM-D65) was used with following 1 h protocol: 10 min at 6 m/min, 50 min at 18 m/min, and increase every 2 min by 2 m/min for the last 10 minutes, all at 12° incline. For all treatment experiments, mice were mock injected with the vehicle for 3–5 days until body weights were stabilized. Heparin plasma was harvested by submandibular bleed. For all experiments, mice were randomly assigned to treatment groups. Experimenters were not blinded to groups.

`CC(C)C[C@H](NC(=O)[C@@H]1CCC(=O)N1)C(=O)N[C@@H](CCC(=O)O)C(=O)N[C@@H](CC(C)C)C(=O)N[C@@H](CCCNC(=N)N)C(=O)N[C@@H](CC(C)C)C(=O)N[C@@H](CCCNC(=N)N)C(=O)N[C@H](C(=O)N[C@@H](C)C(=O)N[C@@H](C)C(=O)NCC(=O)N[C@@H](CCCNC(=N)N)C(N)=O)C(C)C` [CAP-GDF15] ([pGlu]LELRLRVAAGR-NH2) was tested, and the “Food Intake” value (24 h, individual animal 1) was 0.5 g, the “Food Intake” value (24 h, individual animal 2) was 2.2 g and the “Food Intake” value (24 h, individual animal 3) was 1.3 g. The “Food Intake” value (24 h, individual animal 4) was 1.4 g, the “Food Intake” value (24 h, individual animal 5) was 0.3 g and the “Food Intake” value (24 h, individual animal 6) was 0.825 g. For the same compound, the “Food Intake” value (24 h, individual animal 7) was 0.525 g, the “Food Intake” value (48 h, individual animal 1) was 1.2 g and the “Food Intake” value (48 h, individual animal 2) was 5 g. For the same compound, the “Food Intake” value (48 h, individual animal 3) was 2.9 g, the “Food Intake” value (48 h, individual animal 4) was 4.1 g and the “Food Intake” value (48 h, individual animal 5) was 0.6 g. For the same compound, the “Food Intake” value (48 h, individual animal 6) was 1.8 g, the “Food Intake” value (48 h, individual animal 7) was 1.325 g and the “Food Intake” value (72 h, individual animal 1) was 2.9 g. The “Food Intake” value (72 h, individual animal 2) was 7.8 g, the “Food Intake” value (72 h, individual animal 3) was 4.9 g and the “Food Intake” value (72 h, individual animal 4) was 6.7 g. For the same compound, the “Food Intake” value (72 h, individual animal 5) was 0.8 g, the “Food Intake” value (72 h, individual animal 6) was 2.95 g and the “Food Intake” value (72 h, individual animal 7) was 2.775 g. The “body weight change over three days” value (50 mg/kg/day IP, diet-induced obese mice, mean ± SEM, N = 13 mice) was −1.9 ± 0.3 g/mouse.
